The values below come from US20110065663A1, “ANTI-CANCER COMBINATION THERAPY” (Katholieke Universiteit Leuven, K.U. Leuven R&D, priority 2008, published 2011).

Each structure is given as a SMILES string.

One assay deals with T1, E. coli TP (Escherichia coli, UniProt P07650).
T1 construct: purchased Sigma
Briefly: Enzyme activity assay with recombinant E. coli TP (positive control). Type of assay: biochemical. The settings on record: 0.025 U TP, 200 μM substrate. As for the experimental part:
(§1) The TP activity of M. hyorhinis and the conversion of dThd, FdUrd, 5′DFUR and TFT to thymine, 5FU, 5FU or TF-thymine respectively were measured by high-pressure liquid chromatography (HPLC) analysis. MCF-7 and MCF-7/HYOR cells were seeded at a density of 20,000 cells/cm^2 in DMEM with 10% FBS. Four days later, the medium was collected and cleared by centrifugation at 1,400 rpm. For some experiments, the medium of MCF-7/HYOR cells was filtered using a 0.1 μm micro filter (Acrodisc syringe filter, PALL Corporation, East Hills, N.Y.) to remove the mycoplasmas from the medium. 600 μl of the medium was incubated with 200 μM of substrate (dThd, 5′DFUR, TFT or FdUrd) at 37° C. in the presence or absence of 10 μM TPi. At different time points (i.e. 0, 15, 30, 60, 120 minutes and 16 hours), 100 μl aliquots were withdrawn, transferred to Eppendorf tubes and heated at 95° C. for 3 min. Next, the samples were rapidly cooled on ice, exposed for 20 min to 200 μl ice-cold methanol and cleared by centrifugation at 15,000 rpm for 15 minutes. As a positive control, an enzyme activity assay with E. coli TP (Sigma) was performed. For this reaction, 0.025 U of TP were incubated with 200 μM of substrate in TP-buffer (10 mM Tris-HCl, pH 7.6, 1 mM EDTA, 2 mM potassium phosphate and 150 mM NaCl) in a total volume of 600 μl. Aliquots of 100 μl were withdrawn from the reaction mixture at several time points and treated as described above. The nucleosides were separated from their nucleobases on a reversed-phase RP-8 column (Merck, Darmstadt, Germany) and quantified by HPLC analysis (Aliance 2690, Waters, Milford, Mass.). The separation was performed by a linear gradient from 100% buffer B (50 mM NaH2PO4 and 5 mM heptane sulfonic acid, pH 3.2), to 20% buffer B and 80% acetonitrile. Retention times of thymine and thymidine were respectively 5.1 and 10.8 minutes. UV-based detection of all nucleosides was performed at 267 nm.

For another assay, the system named is MCF-7/HYOR cell cultures. Briefly: Nucleoside metabolism experiments, distribution of drug-derived radiolabel in MCF-7/HYOR cell cultures. The assay is classed as cell-based, human. The settings on record: MCF-7/HYOR; for % of drug-derived radiolabel, In medium, Base / % of drug-derived radiolabel, In medium, Nucleoside / % of drug-derived radiolabel, In the cytosol of the cells, 5′-diphosphate / % of drug-derived radiolabel, In the cytosol of the cells, 5′-monophosphate / % of drug-derived radiolabel, In the cytosol of the cells, 5′-triphosphate / % of drug-derived radiolabel, In the cytosol of the cells, Nucleoside/nucleobase / % of drug-derived radiolabel, Incorporatio into DNA/RNA: 1 μCi, 16 h; for Increase of 5′-monophosphate levels in the presence of TPi: with versus without TPi.

Another assay relates to MCF-7/HYOR cells. Briefly: Nucleotide incorporation assay, MCF-7/HYOR compared with MCF-7 cells. The assay is classed as cell-based, human. The conditions noted are these: 1 μCi radiolabeled compound; FIG. 4. How it is done: MCF-7 and MCF-7/HYOR cells were seeded at 10,000 cells/cm. After 48 hours, cells were treated with 1 μCi of ^3H-labeled nucleoside with or without 10 μM TPi. 16 h later, the medium was removed and the cells were washed twice with PBS. Next, the cells were trypsinized, transferred to Eppendorf tubes and centrifuged for 10 minutes at 1,400 rpm. The pellet was resuspended in 1 ml absolute ice-cold methanol and kept on ice for 20 minutes. After centrifugation for 20 minutes at 13,000 rpm the pellet was washed twice with methanol, resuspended in methanol and transferred to scintillation vials containing 9 ml of Ready safe liquid scintillation reagent (‘Hisafe 3’, Perkin Elmer, Waltham, Mass.). The radioactivity was measured by a Liquid scintillation analyzer (2300 TR, Packard, Canberra, Australia).

Assay [1] in a line: Conversion of nucleosides in the medium of uninfected MCF-7 cells. The settings on record: even after 24 hours of incubation; data not shown. The assay is classed as biochemical, human. How it is done:
as §1, with “At different time points (i.e. 0, 15, 30, 60, 120 minutes and 16 hours), 100 μl aliquots were withdrawn, transferred to Eppendorf tubes and heated at 95° C. for 3 min.” left out, “Retention times of thymine and thymidine were respectively 5.1 and 10.8 minutes.” left out

T1 sequence (P07650 whole entry): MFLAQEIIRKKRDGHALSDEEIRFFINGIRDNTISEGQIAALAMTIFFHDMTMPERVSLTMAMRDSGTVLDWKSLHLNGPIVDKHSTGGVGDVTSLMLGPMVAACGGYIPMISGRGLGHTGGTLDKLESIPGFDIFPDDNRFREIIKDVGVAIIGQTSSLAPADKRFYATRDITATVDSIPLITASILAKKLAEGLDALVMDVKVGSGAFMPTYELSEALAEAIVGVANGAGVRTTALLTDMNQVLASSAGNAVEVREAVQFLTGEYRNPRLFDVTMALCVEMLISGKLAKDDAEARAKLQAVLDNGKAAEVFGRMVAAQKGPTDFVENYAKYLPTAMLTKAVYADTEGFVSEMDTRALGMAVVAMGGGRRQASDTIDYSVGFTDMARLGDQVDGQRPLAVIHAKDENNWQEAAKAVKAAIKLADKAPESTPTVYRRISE

On to `O=c1[nH]c(=O)n([C@H]2C[C@H](O)[C@@H](CO)O2)cc1C(F)(F)F` [TFT, 5-trifluorothymidine], for which the “Percent conversion of nucleoside to the free pyrimidine base, recombinant E. coli TP” value on E. coli TP (2 hours) is given as 48%. The “Percent conversion of nucleoside to the free pyrimidine base, recombinant E. coli TP” value at E. coli TP (16 hours) was 85%. In the assay with MCF-7/HYOR cell cultures, the “% of drug-derived radiolabel, In medium, Base” value amounted to 56.7%; the “% of drug-derived radiolabel, In medium, Nucleoside” value came out at 23.3%; the “% of drug-derived radiolabel, In the cytosol of the cells, 5′-diphosphate” value stood at 0.6%; the “% of drug-derived radiolabel, In the cytosol of the cells, 5′-monophosphate” value is reported as 6.1%. In the assay on MCF-7/HYOR cell cultures, the “% of drug-derived radiolabel, In the cytosol of the cells, 5′-triphosphate” value was found to be 0.6%; the “% of drug-derived radiolabel, In the cytosol of the cells, Nucleoside/nucleobase” value came to 11.0%; the “% of drug-derived radiolabel, Incorporatio into DNA/RNA” value turned out to be 1.8%; the “Share incorporated into the nucleic acids in the presence of TPi” value is 66%. Besides, the “Increase of 5′-monophosphate levels in the presence of TPi” value in the assay on MCF-7/HYOR cell cultures amounted to 2.7 fold. The “Reduction of incorporation into nucleic acids in infected MCF-7/HYOR cells in comparison with uninfected MCF-7 cells” value in the assay with MCF-7/HYOR cells was found to be 40 fold. In addition, the “Conversion in the medium of uninfected MCF-7 cells” value in assay [1] is “no conversion”.

As to `O=c1[nH]c(=O)n([C@H]2C[C@H](O)[C@@H](CO)O2)cc1F` [FdUrd, 5-fluoro-2′-deoxyuridine], the “Percent conversion of nucleoside to the free pyrimidine base, recombinant E. coli TP” value on E. coli TP (2 hours) turned out to be 57%. Besides, the “Percent conversion of nucleoside to the free pyrimidine base, recombinant E. coli TP” value on E. coli TP (16 hours) came to 63%. In addition, in the assay with MCF-7/HYOR cell cultures, the “% of drug-derived radiolabel, In medium, Base” value is recorded as 49.5%; the “% of drug-derived radiolabel, In medium, Nucleoside” value is given as 33.2%; the “% of drug-derived radiolabel, In the cytosol of the cells, 5′-diphosphate” value came to 0.9%; the “% of drug-derived radiolabel, In the cytosol of the cells, 5′-monophosphate” value is 3.5%. In the assay with MCF-7/HYOR cell cultures, the “% of drug-derived radiolabel, In the cytosol of the cells, 5′-triphosphate” value worked out at 0.3%; the “% of drug-derived radiolabel, In the cytosol of the cells, Nucleoside/nucleobase” value is 11.6%; the “% of drug-derived radiolabel, Incorporatio into DNA/RNA” value worked out at 1.0%; the “Share incorporated into the nucleic acids in the presence of TPi” value is “almost no”. In addition, the “Increase of 5′-monophosphate levels in the presence of TPi” value in the assay on MCF-7/HYOR cell cultures stood at 18 fold. The “Incorporation into nucleic acids, infected versus uninfected MCF-7 cells (in words)” value in the assay on MCF-7/HYOR cells is “did not affect”. Further, the “Conversion in the medium of uninfected MCF-7 cells” value in assay [1] is reported as “no conversion”.
